In article PMC9000318, “Identification and Validation of a New Peptide Targeting Pancreatic Beta Cells” (Molecules, 2022):
Ends that are not written are not given here. * marks the point of attachment. FITC = O=C1OC2(c3ccc(O)cc3Oc3cc(O)ccc32)c2ccc(NC(=S)*)cc21

Columns and labels:
islet cells [1] = assay: FACS binding to islet cells; type: cell-based, ICR mouse; details: flow cytometry, FITC-labeled peptide, 2 h incubation, islets digested to single cells
Method: (§1) Purified FITC-labeled candidate peptides were used for the peptide-based immunofluorescence assay to confirm the selective binding of the selected peptides to the used cells. FITC-labeled peptide-based immunofluorescence assay was performed, and FITC-labeled peptide (1 μM) was added to each well and then incubated for 2 h at room temperature. The wells were washed with PBS three times and directly mounted with vectashield mounting medium after DAPI staining. The cells were visualized under fluorescence microscope. In addition, to determine the binding location of the peptide, MIN6 cells were labeled with LNTPLKS-FITC and further observed under confocal microscope. For fluorescence activated cell sorting, purified islets and KPC cells were incubated in 6 well plates; 24 h later, FITC-labeled peptide was added with a final concentration of 1 μM. After 2 h of incubation, cells were washed with PBS three times and harvested for FACS to quantitatively analyze the binding affinity of the peptide to the different cell types (islets was digested to single cells before FACS analyzing).

KPC cells = assay: FACS binding to KPC cells; type: cell-based, murine; details: flow cytometry, FITC-labeled peptide, 2 h incubation
Method: as §1

primary islet cells = test system: primary islet cells
From the text: Mice insulinoma cell line MIN6 were obtained from the Academy of Sciences Cell Bank of Shanghai and routinely cultured in RPMI-1640 medium (Gibco, Shanghai, China), supplemented with 10% (v/v) fetal bovine serum (FBS) and 1% (v/v) penicillin-streptomycin. The murine pancreatic cancer cell line KPC and the hepatocellular carcinoma cell line (HCC-LM3) were kindly provided by Tingbo Liang’s Research Group (Zhejiang University, Hangzhou, China). KPC cells were maintained in RPMI-1640 medium (Gibco, Shanghai, China), supplemented with 20% FBS, 1% sodium pyruvate (100×), and 1% MEM Non-Essential Amino Acids (NEAA 100×). HCC-LM3 cells were maintained in Dulbecco’s modified Eagle’s medium (DMEM; Gibco, Shanghai, China) with 10% FBS and 1% (v/v) penicillin-streptomycin. The primary islets were isolated by collagenase digestion from ICR (Institute of Cancer Research) mice and separated by density gradient centrifugation as previously described. The islets were incubated at 37 °C in 2 mL RPMI-1640 medium at a density of 100–150 islets per well in 6-well plates and maintained at 37 °C with 5% CO2.
To investigate the effect of LNTPLKS on the viability of the islet cells, different concentrations of LNTPLKS (0, 0.5, 1, 10 μM) were separately co-incubated with islet cells in 96-well plates (triplicate wells for each concentration of peptide). Twenty-four hours later, MTT was added and incubated for 4 h. DMSO was added after centrifugation and the color development was read at an OD of 570 nm. Islet cells were incubated with different concentrations of peptides for 24 h at 37 °C. The supernatant was discarded, cells were rinsed twice with PBS, KRB buffer containing 3.3 mM glucose was added, and the cells were incubated for 30 min at 37 °C. The supernatant was discarded and cells were incubated with KRB buffer containing low glucose (3.3 mM) or high glucose (16.7 mM) for 1 h.

islets grafts = assay: Binding to islet grafts under the renal capsule, kidney slices; details: islets transplanted under renal capsule of ICR mice, slices incubated 2 h
Method: (§2) In order to evaluate whether the LNTPLKS-FITC peptide could directly bind islets within the pancreas, the pancreas of ICR mice was collected and frozen sections were prepared. The cryosections were incubated with anti-insulin solution and LNTPLKS-FITC 2 h after treatment with BSA, followed by observation under fluorescence microscope. To determine whether LNTPLKS could bind to human islet, staining of paraffin-embedded human tissue sections were performed. Briefly, slices were deparaffinized and subsequently permeabilized by heating in antigen-unmasking solutions. After blocking with 2% BSA, slices were incubated with anti-insulin antibody at 4 °C overnight. Cy3-conjugated goat anti-mouse IgG (1:300 dilutions) antibody was incubated for 50 min at 24 °C. Then, the slices were incubated with DAPI and LNTPLKS-FITC or control peptide for 1 h at room temperature. Tissue slides were analyzed using a fluorescence microscope. To further confirm the specificity of peptide to islet, we transplanted islets under renal capsule of the ICR mice. Kidney slices containing islets grafts were prepared and incubated with LNTPLKS-FITC peptide. After 2 h of incubation, the slices were observed under fluorescence microscope.

[2] = test system: islets in pancreas cryosections; assay: Binding to in situ islets, mouse pancreas cryosections; design: species or system ICR mice; details: 2 h incubation, anti-insulin counterstain, fluorescence microscope
Method: as §2

islet cells [3] = assay: FITC-labeled peptide-based immunofluorescence assay on purified islets; type: cell-based, ICR mouse; details: fluorescence microscope
Method: as §1

MIN6 cells [4] = assay: Confocal microscopy, localization of the peptide in MIN6 cells; type: cell-based, mice; details: DAPI counterstain
Method: as §1

LM3 tumor = details: mouse, in vivo, 5 mg/kg
From the text: (§3) In total, 2 × 10^6 MIN6 cells and HCC-LM3 cells were subcutaneously inoculated in male nude mice for 4 weeks separately. After 16 days, the tumor grew to approximately 1.0 cm^3. […] The tumor, spleen, kidney and liver were harvested and their fluorescence intensity was quantified by in vivo imaging system (IVIS).

MIN6 cells [5] = assay: FITC-labeled peptide-based immunofluorescence assay (ICC) on MIN6 cells; design: species or system mice; details: FITC-labeled peptide 1 μM, 2 h, room temperature; fluorescence microscope; KPC cells as cell control
Method: as §1

MIN6 tumor = details: mouse, in vivo, 5 mg/kg
From the text: as §3

pancreatic islet = assay: In vivo targeting of pancreatic islets after tail vein injection; design: species or system mice; details: pancreas sliced, data not shown
From the text: The final goal of developing a beta cell-specific molecular probe is to provide a non-invasive, in vivo imaging method for measuring BCM during diabetes progression and tracking islet grafts after islet transplantation, so that necessary and timely intervention can be performed. Therefore, all presumed beta cell-specific probes screened in vitro have to be validated by in vivo studies. As the first step, we tested islet specificity using pancreatic slices and islet graft-containing slices. […] However, when it comes to in vivo studies, the results were obscure. We injected FITC-conjugated LNTPLKS peptide into the mice via tail vein and the pancreas was then sliced to detect the targeting of the peptide in the pancreatic islet. The fluorescence within pancreas was rather weak (data not shown). The unsatisfied result might be attributed to the degradation of the peptide in the body. Increasing peptide stability and its circulation time will facilitate cellular uptake. In the following study, the peptide LNTPLKS will be further processed by chemical modification (such as PEGylation) to protect the peptide from degradation in vivo without changing the targeting ability of the peptide, or by conjugating it with other imaging materials (iron oxide nanoparticle, radionuclide, etc.) to be monitored by MR, SPECT, or other imaging modalities with high sensitivity.

human islets = assay: Binding to human islets, paraffin-embedded pancreatic tissue sections; details: paraffin sections from a donor, co-stained with anti-insulin antibody, 1 h room temperature
Method: as §2

Substance	mean fluorescence peak point, islet group (islet cells [1])	mean fluorescence peak point, KPC cell group (KPC cells)	viability of the islet cells (primary islet cells; MTT, 24 h co-incubation, peptide concentration between 500 and 1 μM, triplicate wells)	glucose-stimulated insulin secretion (GSIS) (primary islet cells; peptide 24 h at 37 °C, between 500 and 1 μM, KRB buffer high glucose 16.7 mM, 1 h, insulin ELISA, three tests)	basical insulin secretion (BIS) (primary islet cells; peptide 24 h at 37 °C, between 500 and 1 μM, KRB buffer low glucose 3.3 mM, 1 h, insulin ELISA, three tests)	fluorescence of islets grafts in kidney slices (islets grafts)	fluorescence of islets in mouse pancreas cryosections [2]	affinity for the islet cells (fluorescent images) (islet cells [3])	localization of the peptide on MIN6 cells (MIN6 cells [4])	fluorescence average counts, kidney (LM3 tumor)	fluorescence average counts, liver (LM3 tumor)	fluorescence average counts, spleen (LM3 tumor)	fluorescence average counts, tumor (LM3 tumor)	FITC signal in MIN6 cells (MIN6 cells [5])	fluorescence average counts, kidney (MIN6 tumor)	fluorescence average counts, liver (MIN6 tumor)	fluorescence average counts, spleen (MIN6 tumor)	fluorescence average counts, tumor (MIN6 tumor)	fluorescence within pancreas after injection (pancreatic islet)	binding to human islets in pancreatic tissue sections (human islets)
LNTPLKS	shifted to the right side	no such shift	only slightly affected	only slightly affected	only slightly affected															
SPPTGIN-FITC [random peptide SPPTGIN conjugated with FITC at the N-terminus, negative control, reference compound]						no fluorescence was observed	no fluorescent signal was merged with the anti-insulin signal													
{FITC}-LNTPLKS [LNTPLKS-FITC, LNTPLKS conjugated with fluorescein isothiocyanate (FITC) at the N-terminus]						fluorescent	fluorescent, whereas the surrounding exocrine tissues were not	high affinity	internalized to the cytoplasm	1.20 × 10^3 counts	2.15 × 10^3 counts	5.24 × 10^2 counts	9.47 × 10^2 counts	significantly higher FITC signal	1.14 × 10^3 counts	1.81 × 10^3 counts	4.84 × 10^2 counts	1.80 × 10^3 counts	rather weak	identifiable within the islets and co-localized with insulin-producing cells
